Like-named read-outs stand apart in the source and are kept apart here.
Tests used:
MERS-CoV "NRCE-HKU270" = test: microbe, parasite or virus in culture; format: cell-based; settings: for IC50: Middle East respiratory syndrome-related coronavirus, Vero C1008, read-out: Antiviral Activities MERS-CoV IC50 (µM)
[1] = system: SARS-CoV-2 "NRC-03-nhCoV"; test: microbe, parasite or virus in culture; format: cell-based
in vitro = settings: African green monkey
[2] = system: NRC-03-nhCoV in Vero-E6 cells; test: microbe, parasite or virus in culture; format: cell-based, SARS-CoV-2; settings: Severe acute respiratory syndrome coronavirus 2, Vero C1008, read-out: Half maximal inhibitory concentration (IC50) against NRC-03-nhCoV
SARS-CoV-2 = settings: read-out: IC50 of FDA-approved drugs applied in COVID-19 treatment protocols; cited from earlier work
[3] = Severe acute respiratory syndrome coronavirus 2, Vero C1008, read-out: Antiviral Activities SARS-CoV-2 IC50 (µM)
[4] = read-out: Antiviral Activities SARS-CoV-2 IC50

| SMILES | Antiviral Activities MERS-CoV SI (selectivity index) (MERS-CoV "NRCE-HKU270") | IC50 (MERS-CoV "NRCE-HKU270") [µM] | Antiviral Activities SARS-CoV-2 SI (selectivity index) [1] | IC50 [1, 3] [µM] | CC50 (in vitro; Cytotoxicity (CC50, µM)) [µM] | IC50 [2] [µM] | IC50 (SARS-CoV-2) [µM] | melting point [°C] | IC50 [1, 4] [µM] | CC50 (in vitro; Half maximal cytotoxic concentration (CC50)) [µM] |
| --- | --- | --- | --- | --- | --- | --- | --- | --- | --- | --- |
| CCC(CC)COC(=O)[C@H](C)N[P@](=O)(OC[C@H]1O[C@@](C#N)(c2ccc3c(N)ncnn23)[C@H](O)[C@@H]1O)Oc1ccccc1 [Remdesivir, reference compound] | 172.66 | 2.74 | 70.40 | 6.72 | 473 | 6.72 | – | – | – | – |
| O=C1Nc2cc(Cl)ccc2[C@]12C[C@@H](S(=O)(=O)c1ccccc1)[C@H]1CSCN12 [Compound 4n, (3R,7’R,7a’R)-6-Chloro-7’-(phenylsulfonyl)-1’,6’,7’,7a’-tetrahydro-3’H-spiro[indoline-3,5’-pyrrolo [1,2-c]thiazole]-2-one] | – | 15 | – | 667 | 222 | – | – | – | – | – |
| CC(C)c1nc(CN(C)C(=O)N[C@H](C(=O)N[C@@H](Cc2ccccc2)C[C@H](O)[C@H](Cc2ccccc2)NC(=O)OCc2cncs2)C(C)C)cs1 [Ritonavir] | – | – | – | – | – | – | ≥ 100 | – | – | – |
| O=C1Nc2ccccc2[C@]12C[C@@H](S(=O)(=O)c1ccccc1)[C@H]1CCCN12 [Compound 4a, (1’R,3R,7a’R)-1’-(Phenylsulfonyl)-1’,2’,5’,6’,7’,7a’-hexahydrospiro[indoline-3,3’-pyrrolizin]-2-one] | 5.25 | 62 | 11.24 | 29 | 326 | – | – | 298 | – | – |
| O=C1Nc2ccc(Br)cc2[C@]12C[C@@H](S(=O)(=O)c1ccccc1)[C@H]1CCCN12 [Compound 4j, (1’R,3R,7a’R)-5-Bromo-1’-(phenylsulfonyl)-1’,2’,5’,6’,7’,7a’-hexahydrospiro[indoline-3,3’-pyrrolizin]-2-one] | <1 | 376 | 1.01 | 197 | 200 | – | – | 250 | – | – |
| O=C1Nc2ccc(Cl)cc2[C@]12C[C@@H](S(=O)(=O)c1ccccc1)[C@H]1CSCN12 [Compound 4b, (3R,7’R,7a’R)-5-Chloro-7’-(phenylsulfonyl)-1’,6’,7’,7a’-tetrahydro-3’H-spiro[indoline-3,5’-pyrrolo [1,2-c]thiazole]-2-one] | 9.95 | 105 | 5.38 | 194 | 1040 | – | – | 282 | – | – |
| COc1ccc2c(c1)[C@]1(C[C@@H](S(=O)(=O)c3ccccc3)[C@H]3CCCN31)C(=O)N2 [Compound 4h, (1’R,3R,7a’R)-5-Methoxy-1’-(phenylsulfonyl)-1’,2’,5’,6’,7’,7a’-hexahydrospiro[indoline-3,3’-pyrrolizin]-2-one] | 38.06 | 15 | 15.43 | 37 | 571 | – | – | 240 | – | – |
| O=C1Nc2cc(Cl)ccc2[C@]12C[C@@H](S(=O)(=O)c1ccccc1)[C@H]1CCCN12 [Compound 4m] | 1.17 | 191 | <1 | 305 | 225 | – | – | – | – | – |
| O=C1N(CCBr)c2ccccc2[C@]12C[C@@H](S(=O)(=O)c1ccccc1)[C@H]1CCCN12 [Compound 4l, (1’R,3R,7a’R)-1-(2-Bromoethyl)-1’-(phenylsulfonyl)-1’,2’,5’,6’,7’,7a’-hexahydrospiro[indoline-3,3’-pyrrolizin]-2-one] | 1.41 | 146 | 1.92 | 107 | 206 | – | – | 70 | – | – |
| NC(=O)c1ncn([C@@H]2O[C@H](CO)[C@@H](O)[C@H]2O)n1 [Ribavirin] | – | – | – | – | – | – | 70 | – | – | – |
| O=C1Nc2ccccc2[C@]12C[C@@H](S(=O)(=O)c1ccccc1)[C@H]1CSCN12 [Compound 4i, (3R,7’R,7a’R)-7’-(Phenylsulfonyl)-1’,6’,7’,7a’-tetrahydro-3’H-spiro[indoline-3,5’-pyrrolo [1,2-c]thiazole]-2-one] | – | 11 | – | 34 | 1990 | 14.7 | – | – | – | – |
| O=C1Nc2ccc(Br)cc2[C@]12C[C@@H](S(=O)(=O)c1ccccc1)[C@H]1C[C@H](O)CN12 [Compound 4d, (1’R,3R,6’S,7a’R)-5-Bromo-6’-hydroxy-1’-(phenylsulfonyl)-1’,2’,5’,6’,7’,7a’-hexahydrospiro[indoline-3,3’-pyrrolizin]-2-one] | 8.95 | 23 | 8.58 | 24 | 206 | – | – | 220 | – | – |
| O=C1Nc2ccc(Cl)cc2[C@]12C[C@@H](S(=O)(=O)c1ccccc1)[C@H]1CCCN12 [Compound 4g, (1’R,3R,7a’R)-5-Chloro-1’-(phenylsulfonyl)-1’,2’,5’,6’,7’,7a’-hexahydrospiro[indoline-3,3’-pyrrolizin]-2-one] | 3.97 | 101 | 1 | 405 | 405 | – | – | 254 | – | – |
| O=C1Nc2ccc([N+](=O)[O-])cc2[C@]12C[C@@H](S(=O)(=O)c1ccccc1)[C@H]1CSCN12 [Compound 4e, (3R,7’R,7a’R)-5-Nitro-7’-(phenylsulfonyl)-1’,6’,7’,7a’-tetrahydro-3’H-spiro[indoline-3,5’-pyrrolo [1,2-c]thiazole]-2-one] | 3.90 | 74 | 17 | 18 | 289 | – | – | 95 | 17 | – |
| CN1C(=O)[C@@]2(C[C@@H](S(=O)(=O)c3ccccc3)[C@H]3CCCN32)c2ccccc21 [Compound 4k, (1’R,3R,7a’R)-1-Methyl-1’-(phenylsulfonyl)-1’,2’,5’,6’,7’,7a’-hexahydrospiro[indoline-3,3’-pyrrolizin]-2-one] | 13.37 | 66 | – | 27 | 883 | 5.98 | – | – | – | 882 |
| O=C1Nc2ccc([N+](=O)[O-])cc2[C@]12C[C@@H](S(=O)(=O)c1ccccc1)[C@H]1C[C@H](O)CN12 [Compound 4c, (1’R,3R,6’S,7a’R)-6’-Hydroxy-5-nitro-1’-(phenylsulfonyl)-1’,2’,5’,6’,7’,7a’-hexahydrospiro[indoline-3,3’-pyrrolizin]-2-one] | 16.84 | 65 | – | 17 | 1100 | 8.79 | – | – | 18 | – |
| COc1ccc2c(c1)[C@]1(C[C@@H](S(=O)(=O)c3ccccc3)[C@H]3CSCN31)C(=O)N2 [Compound 4f, (3R,7’R,7a’R)-5-Methoxy-7’-(phenylsulfonyl)-1’,6’,7’,7a’-tetrahydro-3’H-spiro[indoline-3,5’-pyrrolo [1,2-c]thiazole]-2-one] | 3.92 | 88 | <1 | 2250 | 345 | – | – | 105 | – | – |
| CC[C@H]1OC(=O)[C@H](C)[C@@H](O[C@H]2C[C@@](C)(OC)[C@@H](O)[C@H](C)O2)[C@H](C)[C@@H](O[C@@H]2O[C@H](C)C[C@H](N(C)C)[C@H]2O)[C@](C)(O)C[C@@H](C)CN(C)[C@H](C)[C@@H](O)[C@]1(C)O [Azithromycin] | – | – | – | – | – | – | 2.12 | – | – | – |
